Literature values in patent US20230277510A1, “SIROLIMUS MICROSPHERES AND METHOD OF MAKING SIROLIMUS MICROSPHERES” (M.A. Med Alliance SA, priority 2022, published 2023).

- octanol/water partition coefficient (log P): 4.3
Compound: CO[C@H]1C[C@@H]2CC[C@@H](C)[C@@](O)(O2)C(=O)C(=O)N2CCCC[C@H]2C(=O)O[C@H]([C@H](C)C[C@@H]2CC[C@@H](O)[C@H](OC)C2)CC(=O)[C@H](C)/C=C(\C)[C@@H](O)[C@@H](OC)C(=O)[C@H](C)C[C@H](C)/C=C/C=C/C=C/1C [SRL, sirolimus]
